Measured values published in the supplement of paper PMC10307832.

Columns and labels:
Assay in all cases: relative viability (nuclei count vs DMSO), 5 days (fraction); higher = more cells survive
HCC-44 = system: HCC-44
Procedure, shortened: (§1)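 Medians of duplicate plates are given as relative viability. That measure is the nuclei count in treated wells divided by the count in vehicle wells. Counts were taken on 4× images of lung cancer cell lines in 1536-well plates, 5 days after pin-tool dosing the day after seeding with one drug alone or a fixed anchor-drug dose plus five library-drug doses (not always all listed) in √10 steps.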

NCI-H2405 = system: NCI-H2405
Procedure, shortened: as §1

NCI-H460 = system: NCI-H460
Procedure, shortened: as §1

A-427 = system: A-427
Procedure, shortened: as §1

NCI-H1755 = system: NCI-H1755
Procedure, shortened: as §1

ChaGo-K-1 = system: ChaGo-K-1
Procedure, shortened: as §1

EPLC-272H = system: EPLC-272H
Procedure, shortened: as §1

NCI-H522 = system: NCI-H522
Procedure, shortened: as §1

NCI-H647 = system: NCI-H647
Procedure, shortened: as §1

NCI-H358 = system: NCI-H358
Procedure, shortened: as §1

RERF-LC-KJ = system: RERF-LC-KJ
Procedure, shortened: as §1

COR-L 105 = system: COR-L 105
Procedure, shortened: as §1

LK-2 = system: LK-2
Procedure, shortened: as §1

EMC-BAC-2 = system: EMC-BAC-2
Procedure, shortened: as §1

NCI-H1792 = system: NCI-H1792
Procedure, shortened: as §1

LU99A = system: LU99A
Procedure, shortened: as §1

NCI-H1650 = system: NCI-H1650
Procedure, shortened: as §1

HARA = system: HARA
Procedure, shortened: as §1

NCI-H1734 = system: NCI-H1734
Procedure, shortened: as §1

NCI-H1993 = system: NCI-H1993
Procedure, shortened: as §1

NCI-H596 = system: NCI-H596
Procedure, shortened: as §1

EKVX = system: EKVX
Procedure, shortened: as §1

SW 900 = system: SW 900
Procedure, shortened: as §1

**Q.** For CN1CCN(CCOc2cc(OC3CCOCC3)c3c(Nc4c(Cl)ccc5c4OCO5)ncnc3c2)CC1 [Saracatinib] + CC(=O)Nc1cccc(-n2c(=O)n(C3CC3)c(=O)c3c(Nc4ccc(I)cc4F)n(C)c(=O)c(C)c32)c1 [Trametinib] (partner 0.02 µM), which relative viability (HCC-44; first compound 0.02 µM) is on record?
**A.** 1.05

**Q.** What about the relative viability (HCC-44; first compound 0.2 µM) of the same compound?
**A.** 1.02

**Q.** What about the relative viability (HCC-44; first compound 0.6325 µM) of the same compound?
**A.** 1.18

**Q.** And the relative viability (HCC-44; first compound 2 µM)?
**A.** 1.21

**Q.** And the relative viability (NCI-H2405; first compound 0.02 µM)?
**A.** 0.646

**Q.** And the relative viability (NCI-H2405; first compound 0.2 µM)?
**A.** 0.616

**Q.** What about the relative viability (NCI-H2405; first compound 0.6325 µM) of the same compound?
**A.** 0.444

**Q.** What about the relative viability (NCI-H2405; first compound 2 µM) of the same compound?
**A.** 0.406

**Q.** What about the relative viability (NCI-H460; first compound 0.02 µM) of the same compound?
**A.** 0.215

**Q.** What about the relative viability (NCI-H460; first compound 0.2 µM) of the same compound?
**A.** 0.139

**Q.** And the relative viability (NCI-H460; first compound 0.6325 µM)?
**A.** 0.129

**Q.** And the relative viability (NCI-H460; first compound 2 µM)?
**A.** 0.056

**Q.** And the relative viability (A-427; first compound 0.02 µM)?
**A.** 0.764

**Q.** What about the relative viability (A-427; first compound 0.2 µM) of the same compound?
**A.** 0.738

**Q.** And the relative viability (A-427; first compound 0.6325 µM)?
**A.** 0.911

**Q.** And the relative viability (A-427; first compound 2 µM)?
**A.** 0.672

**Q.** And the relative viability (NCI-H1755; first compound 0.02 µM)?
**A.** 0.724

**Q.** And the relative viability (NCI-H1755; first compound 0.2 µM)?
**A.** 0.714

**Q.** What about the relative viability (NCI-H1755; first compound 0.6325 µM) of the same compound?
**A.** 0.75

**Q.** And the relative viability (NCI-H1755; first compound 2 µM)?
**A.** 0.694

**Q.** What about the relative viability (ChaGo-K-1; first compound 0.02 µM) of the same compound?
**A.** 0.935

**Q.** And the relative viability (ChaGo-K-1; first compound 0.2 µM)?
**A.** 0.566

**Q.** What about the relative viability (ChaGo-K-1; first compound 0.6325 µM) of the same compound?
**A.** 0.906

**Q.** What about the relative viability (ChaGo-K-1; first compound 2 µM) of the same compound?
**A.** 0.84

**Q.** And the relative viability (EPLC-272H; first compound 0.02 µM)?
**A.** 0.289

**Q.** And the relative viability (EPLC-272H; first compound 0.2 µM)?
**A.** 0.368

**Q.** What about the relative viability (EPLC-272H; first compound 0.6325 µM) of the same compound?
**A.** 0.283

**Q.** What about the relative viability (EPLC-272H; first compound 2 µM) of the same compound?
**A.** 0.287

**Q.** And the relative viability (NCI-H522; first compound 0.02 µM)?
**A.** 0.708

**Q.** And the relative viability (NCI-H522; first compound 0.2 µM)?
**A.** 0.745

**Q.** And the relative viability (NCI-H522; first compound 0.6325 µM)?
**A.** 0.788

**Q.** And the relative viability (NCI-H522; first compound 2 µM)?
**A.** 0.536

**Q.** What about the relative viability (NCI-H647; first compound 0.02 µM) of the same compound?
**A.** 0.449

**Q.** What about the relative viability (NCI-H647; first compound 0.2 µM) of the same compound?
**A.** 0.381

**Q.** And the relative viability (NCI-H647; first compound 0.6325 µM)?
**A.** 0.39

**Q.** What about the relative viability (NCI-H647; first compound 2 µM) of the same compound?
**A.** 0.255

**Q.** And the relative viability (NCI-H358; first compound 0.02 µM)?
**A.** 0.156

**Q.** What about the relative viability (NCI-H358; first compound 0.2 µM) of the same compound?
**A.** 0.131

**Q.** What about the relative viability (NCI-H358; first compound 0.6325 µM) of the same compound?
**A.** 0.105

**Q.** What about the relative viability (NCI-H358; first compound 2 µM) of the same compound?
**A.** 0.0979

**Q.** And the relative viability (RERF-LC-KJ; first compound 0.02 µM)?
**A.** 0.907

**Q.** And the relative viability (RERF-LC-KJ; first compound 0.2 µM)?
**A.** 0.869

**Q.** What about the relative viability (RERF-LC-KJ; first compound 0.6325 µM) of the same compound?
**A.** 0.916

**Q.** What about the relative viability (RERF-LC-KJ; first compound 2 µM) of the same compound?
**A.** 0.687

**Q.** What about the relative viability (COR-L 105; first compound 0.02 µM) of the same compound?
**A.** 0.486

**Q.** And the relative viability (COR-L 105; first compound 0.2 µM)?
**A.** 0.437

**Q.** And the relative viability (COR-L 105; first compound 0.6325 µM)?
**A.** 0.37

**Q.** What about the relative viability (COR-L 105; first compound 2 µM) of the same compound?
**A.** 0.317

**Q.** What about the relative viability (LK-2; first compound 0.02 µM) of the same compound?
**A.** 0.725

**Q.** What about the relative viability (LK-2; first compound 0.2 µM) of the same compound?
**A.** 0.736

**Q.** What about the relative viability (LK-2; first compound 0.6325 µM) of the same compound?
**A.** 0.722

**Q.** And the relative viability (LK-2; first compound 2 µM)?
**A.** 0.614

**Q.** And the relative viability (EMC-BAC-2; first compound 0.02 µM)?
**A.** 0.896

**Q.** And the relative viability (EMC-BAC-2; first compound 0.2 µM)?
**A.** 0.97

**Q.** And the relative viability (EMC-BAC-2; first compound 0.6325 µM)?
**A.** 1.11

**Q.** What about the relative viability (EMC-BAC-2; first compound 2 µM) of the same compound?
**A.** 0.901

**Q.** And the relative viability (NCI-H1792; first compound 0.02 µM)?
**A.** 0.492

**Q.** And the relative viability (NCI-H1792; first compound 0.2 µM)?
**A.** 0.355

**Q.** What about the relative viability (NCI-H1792; first compound 0.6325 µM) of the same compound?
**A.** 0.382

**Q.** And the relative viability (NCI-H1792; first compound 2 µM)?
**A.** 0.3

**Q.** And the relative viability (LU99A; first compound 0.02 µM)?
**A.** 0.532

**Q.** And the relative viability (LU99A; first compound 0.2 µM)?
**A.** 0.473

**Q.** What about the relative viability (LU99A; first compound 0.6325 µM) of the same compound?
**A.** 0.565

**Q.** And the relative viability (LU99A; first compound 2 µM)?
**A.** 0.459

**Q.** And the relative viability (NCI-H1650; first compound 0.02 µM)?
**A.** 0.528

**Q.** What about the relative viability (NCI-H1650; first compound 0.2 µM) of the same compound?
**A.** 0.438

**Q.** And the relative viability (NCI-H1650; first compound 0.6325 µM)?
**A.** 0.505

**Q.** What about the relative viability (NCI-H1650; first compound 2 µM) of the same compound?
**A.** 0.291

**Q.** And the relative viability (HARA; first compound 0.02 µM)?
**A.** 0.688

**Q.** And the relative viability (HARA; first compound 0.2 µM)?
**A.** 0.624

**Q.** And the relative viability (HARA; first compound 0.6325 µM)?
**A.** 0.836

**Q.** And the relative viability (HARA; first compound 2 µM)?
**A.** 0.344

**Q.** And the relative viability (NCI-H1734; first compound 0.02 µM)?
**A.** 0.7

**Q.** And the relative viability (NCI-H1734; first compound 0.6325 µM)?
**A.** 0.645

**Q.** And the relative viability (NCI-H1734; first compound 2 µM)?
**A.** 0.611

**Q.** What about the relative viability (NCI-H1993; first compound 0.02 µM) of the same compound?
**A.** 0.539

**Q.** What about the relative viability (NCI-H1993; first compound 0.2 µM) of the same compound?
**A.** 0.518

**Q.** And the relative viability (NCI-H1993; first compound 0.6325 µM)?
**A.** 0.528

**Q.** What about the relative viability (NCI-H1993; first compound 2 µM) of the same compound?
**A.** 0.5

**Q.** And the relative viability (NCI-H596; first compound 0.02 µM)?
**A.** 0.636

**Q.** What about the relative viability (NCI-H596; first compound 0.2 µM) of the same compound?
**A.** 0.722

**Q.** What about the relative viability (NCI-H596; first compound 0.6325 µM) of the same compound?
**A.** 0.648

**Q.** And the relative viability (NCI-H596; first compound 2 µM)?
**A.** 0.584

**Q.** What about the relative viability (EKVX; first compound 0.02 µM) of the same compound?
**A.** 0.274

**Q.** And the relative viability (EKVX; first compound 0.6325 µM)?
**A.** 0.37

**Q.** What about the relative viability (EKVX; first compound 2 µM) of the same compound?
**A.** 0.163

**Q.** What about the relative viability (SW 900; first compound 0.02 µM) of the same compound?
**A.** 0.624

**Q.** And the relative viability (SW 900; first compound 0.2 µM)?
**A.** 0.443

**Q.** And the relative viability (SW 900; first compound 0.6325 µM)?
**A.** 0.647

**Q.** And the relative viability (SW 900; first compound 2 µM)?
**A.** 0.529
